Values after ≈ are worked out from the molar mass of the structure shown.

As a reminder, the bioavailability is dose-corrected exposure relative to a reference, in per cent. Low values mean little systemic uptake, high ones much systemic uptake.

Data set [1] deals with Clostridium difficile ATCC 43255. The experiment in a line: Susceptibility of Clostridium difficile, agar dilution MIC. The note with it: Clostridioides difficile, ATCC43255, anaerobic. Type of data set: cell-based. A digest of the protocol:
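Agar dilution per CLSI M11-A8 on supplemented Brucella agar containing compound dilutions. Inoculum from 0.5 McFarland suspension, 1-2 μL spots; anaerobic incubation at 36° C for 42 to 48 hours. MIC read by eye as the concentration giving marked growth reduction versus compound-free anaerobic control plates.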
(In agar dilution, organisms are placed on agar that contains the substance at set levels.)

Data set [2] concerns Streptococcus pneumoniae ATCC 49619. The experiment in a line: Susceptibility of bacteria, broth microdilution MIC. It is filed as cell-based. The note with it: ATCC49619. As for the experimental part: (§1) The antibacterial activity of the compounds of the present invention was tested by the broth microdilution method. The assay was carried out according to the CLSI guidelines for managing the procedures of susceptibility tests: “M7-A7 Methods for Dilution Antimicrobial Susceptibility Tests for Bacteria That Grow Aerobically; Approved Standard-Seventh Edition (2006)”. Test strains were grown on appropriate agar plates overnight. A broth containing the test compound diluted serially 2-fold and diluents were dispensed at 100 μL to each well of a 96-well microplate. As a growth control, a well with a broth not containing the test compound was also prepared. Colonies grown on the plates were suspended in saline, adjusted to 0.5 McFarland (OD625=0.08 to 0.10) using a colorimeter, and then diluted 10-fold with saline. The bacterial suspension was inoculated at 4 μL into each well of the microplate using a bacterial suspension inoculation apparatus. The inoculated microplate was incubated at 35° C. overnight (about 20 hours). The growth condition was observed by the naked eye, and the minimum concentration to inhibit bacterial proliferation was defined as a minimum inhibitory concentration (MIC).
Background: In broth dilution the organism is exposed to a series of concentrations in liquid medium.

The next data set has as its system E. faecium ATCC 29212. Described as above. It is filed as cell-based. The note with it: Enterococcus faecium, ATCC29212. As for the experimental part: as §1
Data set [3] deals with Haemophilus influenzae ATCC 49247. The data set is described as above. Type of data set: cell-based. The note with it: ATCC49247. The protocol: as §1
Data set [4] can be described thus: Oral bioavailability (BA) in monkeys. It is filed as in vivo, Macaca fascicularis. The note with it: male, cynomolgus monkey, blood, 1 mg/kg oral vs jugular vein. The protocol: To male Macaca fascicularis (3 or 4 year-old) fasted overnight, a solution of the test compound Captisol® was administered into the jugular vein (3 animals) and a solution of Lutrol® F68 was orally administered (3 animals). The dose of both test compounds was 1 mg/kg body weight of the monkey. The amount of Captisol® used was 0.18 mg/kg body weight of the monkey. The amount of Lutrol® F68 used was 0.02 mg/kg body weight of the monkey. The BA value was calculated by the formula below using the integration value (AUCiv(0-∞)) of the blood concentration extrapolated from time 0 to infinity after administration of both test compounds. BA(%)=[[(AUCpo(0-∞))/(dose po)]/[(AUCiv(0-∞))/(dose iv)]]×100 The greater a BA value of the compound shown, the higher the oral bioavailability is.

The subject of the next data set is P. acnes ATCC 6921. The experiment in a line: Susceptibility of P. acnes, agar dilution MIC. Type of data set: cell-based. The note with it: Cutibacterium acnes, ATCC6921, anaerobic. The protocol: (§2) The antibacterial activity of the compounds of the present invention against P. acnes clinical isolates was tested by the agar dilution method. The assay was carried out according to the CLSI guidelines document (Clinical and Laboratory Standards Institute, 2012 & 2016). The test strains were spread on supplemented Brucella agar (SBA) plates and grown for 42 to 48 hours at 36° C. under anaerobic condition. The test compound dilutions were prepared with Brucella broth and SBA plates containing dilution of test compound were prepared. As an anaerobic growth control and to check the aerobic contamination, plates not containing the test compound were also prepared. Colonies grown on plates were suspended with Brucella broth to adjust the turbidity to 0.5 McFarland using a densitometer. Suspension (1-2 μL) of the test strains was inoculated onto each agar surface by using a bacterial suspension inoculation apparatus (multipoint inoculator). After anaerobic incubation for 42 to 48 hours at 36° C., absence and presence of growth of each strain on growth control plates and test compounds plate were examined with unaided eye. The MIC was determined at which a marked reduction occurs in the appearance of growth on the test plate as compared to that of growth on the anaerobic control plates.

The next data set relates to P. acnes IHMA 775486. The experiment in a line: Susceptibility of P. acnes, agar dilution MIC. It is filed as cell-based. The note with it: Cutibacterium acnes, IHMA775486, anaerobic. The protocol: as §2
In another data set the test system is P. acnes IHMA 103740. The experiment in a line: Susceptibility of P. acnes, agar dilution MIC. Type of data set: cell-based. The note with it: Cutibacterium acnes, IHMA103740, anaerobic. The protocol: as §2
A further data set concerns P. acnes ATCC 6523. The experiment in a line: Susceptibility of P. acnes, agar dilution MIC. Type of data set: cell-based. Particulars: Cutibacterium acnes, ATCC6523, anaerobic. As for the experimental part: as §2
Data set [5] deals with N. gonorrhoeae clinical isolates. The experiment in a line: Susceptibility of N. gonorrhoeae, agar dilution MIC. Type of data set: cell-based. As for the experimental part: The antibacterial activity of the compounds of the present invention against N. gonorrhoeae clinical isolates was tested by the agar dilution method [Clinical and Laboratory Standards Institute, 2016]. The test strains were spread on chocolate agar plates and grown for 20-24 h at 36° C. in 5% carbon dioxide. The test compound dilutions were prepared with broth and agar MIC plates were prepared using GC agar base supplemented with haemoglobin and 1% IsoVitaleX plates. As growth control plates not containing the test compound were also prepared. Colonies grown on plates were suspended with broth to adjust the turbidity to 0.5 McFarland using a densitometer. Suspension (1-2 μL) of the test strains was inoculated onto each agar surface by using a bacterial suspension inoculation apparatus (multipoint inoculator). After aerobic incubation for 20-24 h at 36° C. in 5% carbon dioxide, absence and presence of growth of each strain on growth control plates and test compounds plate were examined with unaided eye. The MIC was determined at which a marked reduction occurs in the appearance of growth on the test plate as compared to that of growth on the aerobic control plates.

In the case of `CCc1[nH]c(C(=O)N[C@@H]2CCN(c3nnc([C@H](C)O)s3)C[C@@H]2OC)nc1Cl` (single isomer, unassigned) [Compound No. 5], the MIC was determined as 0.125 µg/mL (≈ 0.301 µM) in data set [1], 0.25 µg/mL (≈ 0.603 µM) in [2], 0.25 µg/mL (≈ 0.603 µM) in the data set on E. faecium ATCC 29212 and 1 µg/mL (≈ 2.41 µM) in data set [3]. Moreover, the bioavailability in data set [4] came out at 100%.

Turning to `CCc1[nH]c(C(=O)N[C@@H]2CCN(c3nnc(C(C)(C)O)s3)C[C@@H]2OC)nc1Cl` [Compound No. 2, 4-Chloro-5-ethyl-N-{(3S,4R)-1-[5-(2-hydroxypropan-2-yl)-1,3,4-thiadiazol-2-yl]-3-methoxypiperidin-4-yl}-1H-imidazole-2-carboxamide], the MIC against P. acnes ATCC 6921 turned out to be 0.125 µg/mL (≈ 0.291 µM); in the data set with P. acnes IHMA 775486 it was 0.125 µg/mL (≈ 0.291 µM); with P. acnes IHMA 103740 it was 0.125 µg/mL (≈ 0.291 µM); against P. acnes ATCC 6523, 0.125 µg/mL (≈ 0.291 µM); in data set [1], 0.06 µg/mL (≈ 0.14 µM); in data set [5] it was 0.25 µg/mL (≈ 0.583 µM). Moreover, the MIC in data set [2] is 0.25 µg/mL (≈ 0.583 µM); in the data set on E. faecium ATCC 29212 it was 0.25 µg/mL (≈ 0.583 µM); in [3], 0.5 µg/mL (≈ 1.17 µM). Further, in data set [4], the bioavailability was determined as 85%.

The values are drawn from US10399968B2, “Hydroxyalkyl thiadiazole derivatives” (Daiichi Sankyo Company, Limited, priority 2015, dated 2019).
